From US20240156959A1, “COMBINATION THERAPY FOR THE TREATMENT OF CANCER COMPRISING AN ANTl-EGFR ANTIBODY AND AN AXL-INHIBITOR” (Yeda Research and Development Co. Ltd., priority 2021, published 2024)

Columns and labels:
PC9 tumors = assay: Whole exome sequencing, untreated vs TKI-treated relapsing tumors; assay type: in vivo, mice
Description: (§1) Whole exome sequencing: Genomic DNA was isolated using PureLink™ Genomic DNA Mini Kit (Cat# K182002). The qualtiy of the DNA was checked by agarose gel ecltrophoresis and Qubit dsDNA HS Assay kit (Thermo Fisher Scientific). Exome sequencing libraries were prepared according to the manufacturer's instructions (Twist Human core exome kit+RefSeq Panel). Input gDNA (50 ng) from each sample was processed for enzymatic fragmentation, subsequent end repair, and dA-tailing to generate dA-tailed DNA fragments. Twist Universal Adapters were ligated to the dA-tailed DNA fragments, and purified to generate gDNA libraries ready for index introduction through amplification. A gDNA library adapted with Twist CDI primers was amplified and purified. The quality of the amplified library was confirmed using capillary electrophoresis (Bioanalyzer, Agilent). Prior to hybridization, the volume of each library was adjusted using the respective concentration of each Amplified Indexed Library. Ten libraries were multiplexed by 150 ng to give a total mass of 1500 ng. The pre-hybridization solution containing library, probes, RefSeq Panel and blockers was dried using a SpeedVac system and low heat. 0.020 ml of the fast hybridization mix was added to the dried pre-hybridization solution, and then 0.030 ml hybridization enhancer was added on top of the pre-hybridization solution. The mixture was incubated for 5 min at 95° C. and later heated for 2 hours at 60° C. in a thermal cycler (Fast Hybridization). Streptavidin Binding Beads (100 μl) were washed three times with 0.2 ml Fast Binding Buffer and re-suspended in 0.2 ml binding buffer. The hybridization mixture was added to the bead suspension and incubated for 30 min at RT with mixing. The beads were washed once, preheated in Fast Wash Buffer 1 for 5 min at 70° C., and three times with 0.2 ml of Wash Buffer2 for 5min at 48° C. DNA was eluted with 0.045 ml nuclease-free water (Streptavidin Binding Bead slurry). The captured library was amplified using PCR to enrich for fragments. The quality of the amplified libraries was verified by means of automated electrophoresis (Tapestation, Agilent). […]
(§2) Alignment and variant calling: Sequence QC was done through FastqQC 0.11.5 (Andrews 2015). Reads were mapped to human reference genome sequence (hg19; NCBI GRCh37) using bwa 0.7.12 (H. Li and Durbin 2009). […]
(§3) Animal experiments: All animal studies were approved by our institutional board and they were performed in accordance with the guidelines of the Institutional Animal Care and Use Committee (IACUC). […] Tumor volume was estimated using vernier caliper measurements of the longest axis, a/mm, and the perpendicular axis, b/mm Volumes were calculated in accordance with the equation V=(4 π/3)×(a/2)^2×(b/2). […]

[1] = test system: AXL-overexpressing tumors; assay: as above; assay type: in vivo, mice
Description: as §1, §2, §3

AXL = assay: Re-analysis of AXL mRNA levels in a published patient dataset; assay type: in vivo; settings: 23 patients, specimens prior to and after treatment, p<0.05
Excerpt: FIGS. 1A-G: Upregulation of AXL is essential for resistance and tolerance. (A) PC9 cells (2×10^6) were subcutaneously implanted in nude mice. […] Tumor volumes are presented (average ±SEM). (B) 3-4 mice from each group presented in A were euthanized when tumors reached 1,500 mm 3 Tumors were extracted and subjected to immunoblotting. Tubulin (TUB) served as the loading control. (C and D) AXL-overexpressing (C) and AXL-knockout PC9 cells (2×10^6, D), along with naïve cells, were subcutaneously implanted in mice. When tumors became palpable, mice were randomized and treated as in A. (E) Data were re-analyzed for AXL mRNA levels in 23 patients with EGFR+NSCLC. Specimens (total=53) were collected at several time points, prior to and after treatment with osimertinib. (F and G) AXL-overexpressing (OX; F) or AXL-knockout PC9 cells (KO; G), along with naïve cells, were untreated or treated with TKIs (1 or 3 μM). Drugs and media were refreshed on day 3 and 6. On day 9, remaining cells (DTPs) were fixed, stained and quantified. Averages±S.D. (triplicates) are shown.

RAD18 = RAD18 immunoprecipitation and immunoblotting in DTPs; assay type: cell-based; settings: erlotinib 1 μM, 2-9 days
Description: FIGS. 3A-G. AXL and RAD18 are functionally linked. (B) PC9 cells were treated with erlotinib (1 μM), or DMSO and RNA was subjected to real time PCR. (C) Transcriptomic data corresponding to 506 patients with lung adenocarcinoma were used to generate an expression correlogram of 19 DNA damage response genes. Pearson correlation coefficients are indicated in each square (see scale code). (D) Parental and RAD18 knockout cells were treated for 9 days with a TKI. Fractions of surviving DTPs are shown. (E) Naïve and RAD18-knockout cells were probed using anti-AXL or anti-RAD18 antibodies. Thereafter, the cells were processed for proximity ligation analysis (red signals). Representative images and PLA quantification are shown. Bar, 20 μm. (F) Cells were treated for 2-9 days with erlotinib (1 μM) or H2O2 (40 μM). Extracts were subjected to immunoprecipitation with an anti-RAD18 or control antibody and immunoprecipitates were immunoblotted. (G) Naïve and AXL-overexpressing cells, along with PC9ER cells, were treated with erlotinib (1 μM). Genomic DNA was isolated after 9 days and the T790M point mutation was determined using digital PCR. Shown are fraction of T790M in cellular DNA. Data are means ±SEM (4 experiments). […]

| SMILES | increase in base alterations in relapsing tumors (PC9 tumors) | increase in base alterations in relapsing tumors [1] | AXL mRNA levels in EGFR tumors of patients (AXL) | ubiquitination of PCNA (RAD18) | ubiquitination of RAD18 (RAD18) |
| --- | --- | --- | --- | --- | --- |
| C=CC(=O)Nc1cc(Nc2nccc(-c3cn(C)c4ccccc34)n2)c(OC)cc1N(C)CCN(C)C [osimertinib] | 2.37 fold | 2.52 fold | AXL up-regulation | – | – |
| C#Cc1cccc(Nc2ncnc3cc(OCCOC)c(OCCOC)cc23)c1 [erlotinib] | 2.31 fold | 2.42 fold | – | increased ubiquitination of PCNA | reduced ubiquitination of RAD18 |
